Reference: patent US12479905B2, “Peptide used for immunotherapeutics” (3H BIO. CO., LTD., priority 2020, dated 2025)
Non-standard residues stand in square brackets, D forms with d. No end group written: not given here. Cha = N[C@@H](CC1CCCCC1)C(=O)O; Ahx = NCCCCCC(=O)O

How the values were obtained:
[1] = Weight measurement of high-fat-diet mice after in vivo administration of peptide composition (Experimental Example 7); conditions: C57BL/6J male, high-fat diet after 10 weeks; intramuscular administration at 8, 10, 12 and 14 weeks of age; 50 μg peptide/100 μL with PHAD and Alhydrogel
Source text: In order to test the effect of the composition for in vivo administration prepared in Experimental Example 1.5, C57BL/6, Balbc and/or ICR species were used as experimental mice (purchased from Central Lab Animal Inc.). Although there were some differences in species, the mice purchased were 7-week-old on average and they were acclimatized for one week, and were used for experiments when they were 8 weeks of age. Experimental mice were reared under the conditions of a constant temperature and humidity environment within the temperature range of 23±1° C., relative humidity of 50±5%, and an environment controlled as 12-hour light room/12 hour dark room. Drinking water and food were provided ad libitum. In the case of a normal diet (purchased from Central Lab Animal Inc.), it consisted of 20% protein, 70% carbohydrate, and 10% fat based on total calories, whereas in the case of an obesity-inducing diet (purchased from Research diets), it consisted of a high-fat diet including 20% protein, 20% carbohydrate, and 60% fat based on total calories. Experimental mice were divided into each group to have different dietary conditions and composition administration conditions, and experiments were performed with the number of individuals that could be statistically processed for each experimental group. Detailed conditions are as disclosed in each specific experimental example.
For a test subject prepared in Experimental Example 1.6, different compositions were administered for each experimental group. All administration compositions were administered by an intramuscular injection method, and after disinfecting muscles of both thighs of each mouse with an alcohol swab, 50 μL each with a total amount of 100 μL was injected.
From the time of arrival to the end of the experiment for each experimental group of mice, the average was calculated after measuring three times per week to obtain the average weight value for each week. After completion of the experiment, each mouse was anesthetized, organs were dissected, and weights were measured, and the average was obtained for each experimental group.
According to Experimental Example 1.7, the composition for in vivo administration was administered to the test subject. In particular, the administration cycle was as follows: 8 weeks, 10 weeks, 12 weeks, and 14 weeks of age.
(1) According to Experimental Example 1.8, the weight of a test subject for each experimental group was measured.

[2] = tested on: RNVPPIFNDVYWIAF (SEQ ID NO: 6); assay: Confirmation of antibody titer in serum by ELISA using the target antigen (Experimental Example 7); format: in vivo, C57BL/6J, male mice; conditions: serum at 11, 16 and 19 weeks of age; ELISA antigen SEQ ID NO: 6 only; administration at 8, 10, 12 and 14 weeks
Source text: In order to determine whether the composition for in vivo administration administered in Experimental Example 1.7 induced an antibody against the B-cell epitope, a method for confirming the antibody titer using the target antigen is as follows. In particular, the target antigen is RNVPPIFNDVYWIAF (SEQ ID NO: 6) or ApoB100. The time to confirm the antibody titer may vary as needed, and the time was specifically described for each experimental example.
1-1) For each injection of a composition for in vivo administration into a test subject, collect about 200 μL of blood from the subject's tail vein one week after the injection.
1-2) After placing the collected blood at 4° C. for one hour, perform centrifugation of the blood sample at 14,000 rpm for 10 minutes to separate the serum, which is the supernatant.
1-3) Dilute the target antigen to a concentration of 50 μg/100 μL in coating buffer (0.05 M, bicarbonate, pH 9.6) and add the antigen to a 96-well plate in an amount of 50 μg per well, and allow them to react overnight at 4° C. so that the peptide is coated on the wall of the well.
1-4) Wash the target antigen-coated plate three times using 300 μL of phosphate buffered saline (PBS)-T (0.05% with Tween-20) per well.
2-1) Add 300 μL of a 0.5% casein blocking solution per well in the plate, and allow to react overnight at 4° C.
2-2) Wash the plate three times with 300 μL of PBS-T per well.
3-1) As the primary antibody reaction, dilute the separated serum to an appropriate concentration, add it in an amount of 100 μL per well, and allow to react at 37° C. for one hour. In particular, after the initial injection, subject the serum to serial dilution by diluting the same to 1/20 to 1/1,000 in the experiment, and 1/500 to 1/10,000 depending on the subject during the experiment after the second to third injections. As a positive control, use a monoclonal antibody against the peptide of SEQ ID NO: 41 after purification.
3-2) After the reaction of 3-1, wash the plate three times with 300 μL of PBS-T per well.
4-1) As a secondary antibody reaction, add 100 μL of horseradish peroxidase (HRP) conjugated to anti-mouse IgG antibody recognizing a mouse antibody per well, and allow them to react at 37° C. for one hour.
4-2) After the reaction of 4-1), wash the plate three times with 300 μL of PBS-T per well.
5-1) Add 100 μL of a o-phenylenediamine dihydrochloride (OPD) solution per well, and allow to react at 37° C. for 10 minutes, and measure the absorbance at OD 450 nm (Synergy HT microplate reader, BioTek).
Obtain the antibody titer in serum by converting the extinction coefficient, which is measured based on 1 mg/mL concentration of the monoclonal antibody against the target antibody as a positive control.
(2) According to Experimental Example 1.9, the antibody titers observed in a test subject for each experimental group at 11 weeks, 16 weeks, and 19 weeks were confirmed. In particular, the target antigen was determined using RNVPPIFNDVYWIAF (SEQ ID NO: 6).

## GSHHHHHHGSDDDDKZaK(Cha)VAAWTLKAAaZRNVPPIFNDVYWIAF (GSHHHHHHGSDDDDK[Ahx][dA]K[Cha]VAAWTLKAA[dA][Ahx]RNVPPIFNDVYWIAF) [P3]
[1]
  weight loss effect compared to the control group (Obese): weight loss effect appeared
[2]
  antibody titer to RNVPPIFNDVYWIAF (SEQ ID NO: 6): observed

## KTTKQSFDLSVKAQYKKNKHZaK(Cha)VAAWTLKAAaZCRFRGLISLSQVYLS (KTTKQSFDLSVKAQYKKNKH[Ahx][dA]K[Cha]VAAWTLKAA[dA][Ahx]CRFRGLISLSQVYLS) [P4]
[1]
  weight loss effect compared to the control group (Obese): there was a weight loss effect

## RNVPPIFNDVYWIAFZaK(Cha)VAAWTLKAAaZ (RNVPPIFNDVYWIAF[Ahx][dA]K[Cha]VAAWTLKAA[dA][Ahx]) [P7]
[1]
  weight loss effect compared to the control group (Obese): weight loss effect appeared
[2]
  antibody titer to RNVPPIFNDVYWIAF (SEQ ID NO: 6): observed

## RNVPPIFNDVYWIAFK(Cha)VAAWTLKAA (RNVPPIFNDVYWIAFK[Cha]VAAWTLKAA) [P8]
[1]
  weight loss effect compared to the control group (Obese): weight loss effect was shown
[2]
  antibody titer to RNVPPIFNDVYWIAF (SEQ ID NO: 6): shown

## RNVPPIFNDVYWIAFZaK(Cha)VAAWTLKAAaZCRFRGLISLSQVYLS (RNVPPIFNDVYWIAF[Ahx][dA]K[Cha]VAAWTLKAA[dA][Ahx]CRFRGLISLSQVYLS) [P1]
[1]
  weight loss effect compared to the control group (Obese): weight loss effect
[2]
  antibody titer to RNVPPIFNDVYWIAF (SEQ ID NO: 6): there were individuals showing a large antibody titer depending on the individual, and there were also individuals which showed no antibody titer

## RNVPPIFNDVYWIAFZaK(Cha)VAAWTLKAAaZGSHHHHHHGSDDDDK (RNVPPIFNDVYWIAF[Ahx][dA]K[Cha]VAAWTLKAA[dA][Ahx]GSHHHHHHGSDDDDK) [P2]
[1]
  weight loss effect compared to the control group (Obese): weight loss effect appeared
[2]
  antibody titer to RNVPPIFNDVYWIAF (SEQ ID NO: 6): observed

## RNVPPIFNDVYWIAFCRFRGLISLSQVYLSZaK(Cha)VAAWTLKAAaZ (RNVPPIFNDVYWIAFCRFRGLISLSQVYLS[Ahx][dA]K[Cha]VAAWTLKAA[dA][Ahx]) [P5]
[1]
  weight loss effect compared to the control group (Obese): a weight loss effect is observed

## RNVPPIFNDVYWIAFK(Cha)VAAWTLKAAHHHHHH (RNVPPIFNDVYWIAFK[Cha]VAAWTLKAAHHHHHH) [P9]
[1]
  weight loss effect compared to the control group (Obese): weight loss effect appeared
[2]
  antibody titer to RNVPPIFNDVYWIAF (SEQ ID NO: 6): observed
